In one experiment the target is MtDXR W203F (Mycobacterium tuberculosis, UniProt P9WNS1, W203F).
The next experiment addresses MtDXR W203Y (Mycobacterium tuberculosis, UniProt P9WNS1, W203Y).

For `O=CN(O)CCCP(=O)(O)O` [fosmidomycin], on MtDXR W203F, the “binding enthalpy more exothermic than wild type by” value is 2.8 kcal/mol and the “enthalpy share of total binding energy (enthalpy-driven binding)” value stood at 75%. At MtDXR W203F (pH 7.5), the “ΔG°” value is listed as “–10.10 ± 0.05 kcal/mol”, the “ΔH°” value is listed as “–7.6 ± 0.7 kcal/mol” and the “–TΔS°” value is given as “–2.5 ± 0.7 kcal/mol”. Further, at MtDXR W203Y, the “binding enthalpy more exothermic than wild type by” value was 5.4 kcal/mol and the “enthalpy share of total binding energy (enthalpy-driven binding)” value is given as 91%. At MtDXR W203Y (pH 7.5), the “ΔG°” value was “–11.26 ± 0.19 kcal/mol”, the “ΔH°” value is given as “–10.2 ± 0.3 kcal/mol” and the “–TΔS°” value was “–1.0 ± 0.4 kcal/mol”.

(Values after PMC4045324 (Biochemistry, 2014).)
